According to patent US8410152B2 (Max-Planck-Gesellschaft zur Forderung der Wissenschaften e. …, priority 2006, dated 2013):

Experiments:
uninduced N2A cells = format: cell-based; conditions: cell death as percent of LDH released into medium vs total LDH, compound 10 μM
Experimental: Neurotoxicity assay: Neurotoxicity was assessed using an LDH (lactate dehydrogenase) assay kit (Roche, Mannheim, Germany) according to the manufacturer's specifications. In the viability assay the aggregation inhibitor compound was added at a final concentration of 10 μM to uninduced N2A cells. The activity of LDH was measured spectrophotometrically at 492 nm. Cell death was calculated as percent of LDH released into medium, compared to total LDH obtained after total cell lysis.

tau construct K19 = tau construct K19 (Homo sapiens, UniProt P10636); assay: Thioflavine S (ThS) assay for aggregation of tau; format: biochemical; conditions: 10 μM tau construct K19, 2.5 μM heparin, ThS fluorescence; for DC50: read-out: DC50; for IC50: over night at 37° C., read-out: ID50 (the source's name)
Chain of tau construct K19 (P10636 with tags, fused parts or gaps isoform P10636-2 limits assumed): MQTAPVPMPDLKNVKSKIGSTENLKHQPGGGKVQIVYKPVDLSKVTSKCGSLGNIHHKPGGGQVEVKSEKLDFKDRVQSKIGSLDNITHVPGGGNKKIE
Experimental: Thioflavine S (ThS) Assay for aggregation of tau: 10 μM of the tau construct K19 were incubated with compounds in a concentration range from 1 nM up to 200 μM in the presence of 2.5 μM heparin in 50 mM NH4Ac buffer over night at 37° C. After addition of 20 μM ThS the signal was measured at 521 nm (emission) at an excitation wavelength of 440 nm. The results of this assay are presented in the IC50 column and DC50 column of Table 1 below.

SMILES	LDH (uninduced N2A cells) [%]	DC50 (tau construct K19) [µM]	IC50 (tau construct K19) [µM]
O=C(NNc1nc(-c2ccccc2)cs1)c1ccc(Cl)cc1	34.3	> 200	> 200
O=C(NNc1nc(-c2ccccc2)cs1)c1cccnc1 [Comp. 1, N′-(4-Phenylthiazol-2-yl)nicotinohydrazide]	56.8	1.7	17
O=C(NNc1nc(-c2cc3ccccc3oc2=O)cs1)c1cccnc1 [Comp. 2, N′-(4-(2-Oxo-2H-chromen-3-yl)thiazol-2-yl)nicotinohydrazide]	15.4	11.1	23.2
O=C(NNc1nc(-c2ccc(Br)cc2)cs1)c1ccc2ccccc2c1 [Comp. 3, N′-(4-(4-Bromophenyl)thiazol-2-yl)-2-naphthohydrazide]	4.2	169	> 200
O=C(NNc1nc(-c2cc3ccccc3oc2=O)cs1)c1ccc2ccccc2c1 [Comp. 4, N′-(4-(2-Oxo-2H-chromen-3-yl)thiazol-2-yl)-2-naphthohydrazide]	15.7	88	> 200
O=C(NNc1nc(-c2cc3ccccc3oc2=O)cs1)c1ccc(F)cc1 [Comp. 5, 4-Fluoro-N′-(4-(2-oxo-2H-chromen-3-yl)thiazol-2-yl)benzohydrazide]	8.6	> 200	47.2
O=C(NNc1nc(-c2ccc([N+](=O)[O-])cc2)cs1)Nc1ccccc1 [Comp. 6]	2.1	33.5	10.8
O=C(NNc1nc(-c2ccc([N+](=O)[O-])cc2)cs1)c1cccnc1 [Comp. 11, N′-[4-(4-nitrophenyl)-1,3-thiazol-2-yl]nicotinohydrazide]	12.9	0.7	3.1
O=C(NNc1nc(-c2ccc(Br)cc2)cs1)c1cccnc1 [Comp. 12, N′-[4-(4-bromophenyl)-1,3-thiazol-2-yl]nicotinohydrazide]	13.6	0.5	3.3
[N-]=[N+]=Nc1ccc(-c2csc(NNC(=O)c3ccc(F)cc3)n2)cc1 [Comp. 14, N′-[4-(4-azidophenyl)-1,3-thiazol-2-yl]-4-fluorobenzohydrazide]	42.5	1.3	4.7
O=C(NNc1nc(-c2ccc(N3CCCC3)cc2)cs1)c1ccc(F)cc1 [Comp. 15, 4-fluoro-N′-[4-(4-pyrrolidin-1-ylphenyl)-1,3-thiazol-2-yl]benzohydrazide]	−1.1	0.7	4.9
O=C(NNc1nc(-c2ccc(N3CCCC3)cc2)cs1)c1ccc2ccccc2c1 [Comp. 16, N′-[4-(4-pyrrolidin-1-ylphenyl)-1,3-thiazol-2-yl]-2-naphthohydrazide]	15.3	1.5	5.8
O=C(NNc1nc(-c2ccc([N+](=O)[O-])cc2)cs1)c1ccco1 [Comp. 17, N′-[4-(4-nitrophenyl)-1,3-thiazol-2-yl]-2-furohydrazide]	4.9	0.8	6.3
O=C(NNc1nc(-c2ccc([N+](=O)[O-])cc2)cs1)c1ccc(F)cc1 [Comp. 18, 4-fluoro-N′-[4-(4-nitrophenyl)-1,3-thiazol-2-yl]benzohydrazide]	46.9	0.9	6.9
Cc1sc(NNC(=O)c2ccc(Cl)cc2)nc1-c1cccc([N+](=O)[O-])c1 [Comp. 19, 4-chloro-N′-[5-methyl-4-(3-nitrophenyl)-1,3-thiazol-2-yl]benzohydrazide]	47.4	10.8	7.7
O=C(NNc1nc(-c2ccc([N+](=O)[O-])cc2)cs1)c1ccc2ccccc2c1 [Comp. 20, N′-(4-(4-Nitrophenyl)thiazol-2-yl)-2-naphthohydrazide]	18.7	0.4	13.6
O=C(NNc1nc(-c2ccc(Br)cc2)cs1)c1ccncc1 [Comp. 21, N′-[4-(4-bromophenyl)-1,3-thiazol-2-yl]isonicotinohydrazide]	1.5	20.2	18
O=C(NNc1nc(-c2ccccc2)cs1)c1cccs1 [Comp. 22, N′-(4-phenyl-1,3-thiazol-2-yl)thiophene-2-carbohydrazide]	14.8	35.5	25.3
COc1cccc(-c2csc(NNC(=O)c3cccs3)n2)c1 [Comp. 23, N′-[4-(3-methoxyphenyl)-1,3-thiazol-2-yl]thiophene-2-carbohydrazide]	25.3	> 200	28.3
O=C(NNc1nc(-c2ccccc2)cs1)c1ccc(F)cc1 [Comp. 24, 4-fluoro-N′-(4-phenyl-1,3-thiazol-2-yl)benzohydrazide]	5.5	16.5	33.6
O=C(NNc1nc(-c2cccc([N+](=O)[O-])c2)cs1)c1ccccc1Cl [Comp. 25, 2-chloro-N′-[4-(3-nitrophenyl)-1,3-thiazol-2-yl]benzohydrazide]	43.0	> 200	35.5
O=C(NNc1nc(-c2cc3ccccc3o2)cs1)c1ccc(Cl)cc1 [Comp. 26, N′-[4-(1-benzofuran-2-yl)-1,3-thiazol-2-yl]-4-chlorobenzohydrazide]	−0.6	21.3	47.2
COc1ccc(-c2csc(NNC(=O)c3ccccc3)n2)cc1 [Comp. 69, N′-[4-(4-methoxyphenyl)-1,3-thiazol-2-yl]benzohydrazide]		19.4	51.3
COc1ccc(-c2csc(NNC(=O)c3ccccc3F)n2)cc1 [Comp. 70, 2-fluoro-N′-[4-(4-methoxyphenyl)-1,3-thiazol-2-yl]benzohydrazide]		30.5	20.4
O=C(NNc1nc(-c2ccc(Cl)cc2)cs1)c1ccccc1 [Comp. 71, N′-[4-(4-chlorophenyl)-1,3-thiazol-2-yl]benzohydrazide]		> 200	> 200
O=C(NNc1nc(-c2ccc(Cl)cc2)cs1)c1ccccc1F [Comp. 72, N′-[4-(4-chlorophenyl)-1,3-thiazol-2-yl]-2-fluorobenzohydrazide]		> 200	101
O=C(NNc1nc(-c2cccc([N+](=O)[O-])c2)cs1)c1ccccc1F [Comp. 73, 2-fluoro-N′-[4-(3-nitrophenyl)-1,3-thiazol-2-yl]benzohydrazide]		38.5	17.5
O=C(NNc1nc(-c2ccc(-c3ccccc3)cc2)cs1)c1ccccc1F [Comp. 74, N′-[4-(1,1′-biphenyl-4-yl)-1,3-thiazol-2-yl]-2-fluorobenzohydrazide]		53.9	20.5
CN(Nc1nc(-c2ccc([N+](=O)[O-])cc2)cs1)C(=O)c1ccc(-c2ccccc2)cc1 [Comp. 76, N-methyl-N′-[4-(4-nitrophenyl)-1,3-thiazol-2-yl]-1,1′-biphenyl-4-carbohydrazide]		138	67.6
CN(C(=O)c1ccc(-c2ccccc2)cc1)N(C)c1nc(-c2ccc([N+](=O)[O-])cc2)cs1 [Comp. 77, N,N′-dimethyl-N′-[4-(4-nitrophenyl)-1,3-thiazol-2-yl]-1,1′-biphenyl-4-carbohydrazide]		17.7	10.9
